Like-named read-outs stand apart in the source and are kept apart here.
Tests used:
Format in all cases: biochemical
[1] = target: T1, puromycin-sensitive aminopeptidase (APP-S) (Homo sapiens, UniProt P55786); assay: chromogenic hydrolysis kinetics at […] nm with purified recombinant enzyme
[2] = target: T1, puromycin-sensitive aminopeptidase (APP-S)
[3] = target: T1, puromycin-sensitive aminopeptidase (APP-S); assay: inhibition of purified recombinant APP-S hydrolysis of Ala-pNA/Val-pNA

T1 sequence (P55786 whole entry): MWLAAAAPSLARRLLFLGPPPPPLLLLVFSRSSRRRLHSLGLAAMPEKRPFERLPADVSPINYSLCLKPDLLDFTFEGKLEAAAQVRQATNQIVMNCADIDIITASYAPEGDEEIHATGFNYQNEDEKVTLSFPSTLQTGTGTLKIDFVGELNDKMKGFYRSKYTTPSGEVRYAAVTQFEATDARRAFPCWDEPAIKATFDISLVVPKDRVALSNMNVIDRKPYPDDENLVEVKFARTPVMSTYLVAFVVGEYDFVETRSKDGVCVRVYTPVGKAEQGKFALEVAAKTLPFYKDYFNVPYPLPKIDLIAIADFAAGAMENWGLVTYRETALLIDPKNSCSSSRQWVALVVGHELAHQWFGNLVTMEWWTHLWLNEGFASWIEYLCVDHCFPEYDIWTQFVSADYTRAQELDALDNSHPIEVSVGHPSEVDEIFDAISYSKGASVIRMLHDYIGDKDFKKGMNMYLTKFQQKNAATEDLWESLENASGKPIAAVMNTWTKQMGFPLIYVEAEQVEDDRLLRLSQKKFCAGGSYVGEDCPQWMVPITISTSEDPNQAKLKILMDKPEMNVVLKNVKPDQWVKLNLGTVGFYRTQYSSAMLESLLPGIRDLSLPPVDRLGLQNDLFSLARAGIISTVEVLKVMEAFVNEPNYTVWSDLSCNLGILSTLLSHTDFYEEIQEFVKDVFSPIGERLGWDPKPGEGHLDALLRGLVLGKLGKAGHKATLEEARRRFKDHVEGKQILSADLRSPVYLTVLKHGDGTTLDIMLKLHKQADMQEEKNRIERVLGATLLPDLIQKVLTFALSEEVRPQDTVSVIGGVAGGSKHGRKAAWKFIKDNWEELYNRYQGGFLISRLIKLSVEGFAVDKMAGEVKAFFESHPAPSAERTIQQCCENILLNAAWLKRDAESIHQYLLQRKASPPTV

Km [1] [µM]	Compound	further results
510 ± 140	C[C@H](N)C(=O)Nc1ccc([N+](=O)[O-])cc1 [Ala-pNA]	
	COC(=O)[C@H](CO[P@@]1(=O)COC(Cn2ccc(N)nc2=O)CO1)NC(=O)[C@@H](N)C(C)C (stereo partly drawn) [compound 2, Methyl (S)-2-((S)-2-Amino-3-methyl-butyrylamino)-3-[(S)-5-(4-amino-2-oxo-2H-pyrimidin-1-ylmethyl)-2-oxido-1,4,2-dioxaphosphinan-2-yloxy]propanoate]	Km [2]: 850 ± 330 µM
280 ± 190	CC(C)[C@H](N)C(=O)Nc1ccc([N+](=O)[O-])cc1 [Val-pNA]	
	CC(C)C[C@H](NC(=O)[C@@H](O)[C@H](N)Cc1ccccc1)C(=O)O [bestatin]	inhibition of purified recombinant APP-S hydrolysis of Ala-pNA/Val-pNA (405 nm) [3]: APP-S hydrolysis of the model substrates was completely inhibited by the addition of bestatin.

Reference: article PMC2830364 (Antiviral research, 2009)
